Patent EP0162695A1, “6-Oxygenated-1,3,,4,5-Tetrahydrobenz(cd)indol-4-amines” (SMITHKLINE BEECHAM CORPORATION, priority 1984, dated 1985)

Target: 5-HTl receptor
Experiment: antagonism of the effect of serotonin in an in vitro dog basilar artery preparation
Assay type: biochemical
From the text: Also, selective 5-HTl receptor antagonist activity of the compounds of formula (I) may be shown by the ability to antagonize the effect of serotonin in an in vitro dog basilar artery preparation, Peroutka et al, Brain Research 259:327-330 (1983).

## COc1ccc2[nH]cc3c2c1CC(N)C3 (stereo not shown) [example 1, 6-methoxy-l,3,4,5-tetrahydrobenz[cd]indole-4-amine hemioxalate]
  Kb: 463 nM
